# Data taken from US10556892B2, “Piperazinyl methanone NAAA inhibitors” (priority 2016, dated 2020).
# Like-named read-outs stand apart in the source and are kept apart here.
# Tests used:
# [1] = Aqueous kinetic solubility in PBS pH 7.4; format: physicochemical; conditions: pH 7.4, aqueous buffer, kinetic from dmso stock; for solubility at 24 h: PBS
# [2] = In vitro metabolic stability, mouse liver microsomes; format: in vitro ADME; parameters: dose or concentration left out as unconfirmed
# Experimental: In vitro metabolic stability. Microsomes stability experiments. In vitro incubation with mouse microsomes (NADPH and UDPG system). […] At time zero, cofactors were added. […] The mixture was kept at 37° C. under shaking. Aliquots (50 mL) were taken at various time points and crashed with 0.15 mL of CH3CN spiked with 500 nM warfarin (internal standard). Reference incubation, with microsomes but without cofactors, was kept at 37° C. and sampled at the end of the time course. After vortexing and centrifugation, 3 mL of supernatant were analyzed by LCMS/MS and detected by multiple reaction monitoring (MRM).
# [3] = Plasma stability; format: in vitro ADME; parameters: dose or concentration left out as unconfirmed; conditions: mouse plasma
# [4] = target: h-AC (Homo sapiens (Human), UniProt Q13510); experiment: biochemical; conditions: read-out: h-AC inh (%) 30 μM
# [5] = Pharmacokinetics study in mice; format: in vivo, mouse; conditions: for Kp: brain and plasma
# Experimental: Compounds were administered orally or intravenously to C57B6/J mice at 3 mg/kg and 3 mg/kg dose, respectively. Vehicle was PEG400/Tween80/saline solution at 15/15/70% in volume, respectively. Three animals per dose were used. […] Control animals treated with vehicle were also included in the study. Animals were sacrificed at time-points and blood and brain samples were collected. […] Brain samples were homogenized in RIPA buffer (150 mM NaCl, 1.0% Triton X-100, 0.5% sodium deoxycholate, 0.1% sodium dodecyl sulfate, 50 mM Tris, pH 8.0) and were then split in two aliquots kept at −80° C. until analysis. An aliquot was used for compound brain level evaluations, following the same procedure described below for plasma samples. The second aliquot was kept for protein content evaluation by bicinchoninic acid (BCA) assay. Samples (plasma and brain homogenate) were thawed in an ice bath, then centrifuged for 20 min and an aliquot of each (50 μL) was transferred into a 96-deepwell plate and added with 150 μl of the extraction solution, consisting of cold acetonitrile spiked with 200 nM of a structural analog of the analyte (14), closely eluting with the analyte itself, as internal standard. After agitation (3 min) the plate was centrifuged at 3000×g for 20 min at 4° C. 80 μl of supernatant was then transferred in a 96-well plate and added with 80 μL of H2O. Standard compound was spiked in net solvent (PBS pH 7.4 added with 20% CH3CN) to prepare a calibration curve over the 1 nM-10 μM range. 3 quality controls samples were also prepared spiking the compound in blank mouse plasma to final 20, 200 and 2000 nM concentrations. Calibrators and QCs were crashed with the same extraction solution used for the plasma samples. Dosing solutions, previously diluted 100000 fold in the net solvent, were also included in the samples and tested. […] Column and UPLC-MS system were purchased from Waters Inc. Milford, USA. Flow rate was set 0.5 mL/min. Eluents were A=H2O and B═CH3CN, both added with 0.1% formic acid. […] The time/concentration profiles measured with the above mentioned system were then analyzed using PK Solutions Excel application (Summit Research Service, USA) to derive the pharmacokinetic data (Maximum observed concentration (Cmax); maximum time (Tmax); cumulative area under curve (AUC) for experimental time points; distribution volume (Vd); systemic clearance (Cl)).
# [6] = phosphate-buffered saline (PBS), 25 °C, Table 11, read-out: Aq. Kinetic Solubility
# [7] = phosphate-buffered saline (PBS), 25 °C, Table 9, read-out: Aq. Skin
# [8] = pH 7.4, read-out: m-LM stab. t1/2
# [9] = phosphate-buffered saline (PBS), 25 °C, Table 10, read-out: Aq. Kinetic Solubility
# [10] = phosphate-buffered saline (PBS) pH 7.4, 25 °C, Table 9, read-out: Aq. Skin
# [11] = 25 °C, Table 10, read-out: Aq. Kinetic Solubility
# [12] = 3 mg/kg, CD1 mouse, iv 3 mpk, brain
# [13] = 3 mg/kg, CD1 mouse, iv 3 mpk, plasma
# [14] = C57B6/J, 10 mg/kg, C57 mouse, po 10 mpk, brain
# [15] = C57B6/J, 10 mg/kg, C57 mouse, po 10 mpk, plasma
# [16] = C57B6/J, 30 mg/kg, C57 mouse, po 30 mpk, brain
# [17] = C57B6/J, 30 mg/kg, C57 mouse, po 30 mpk, plasma
# [18] = phosphate-buffered saline (PBS), 25 °C, Table 7
smiles,measurement,setting,value
CCS(=O)(=O)c1ccccc1C(=O)N1CCN(c2nc3ccccc3s2)CC1 [H],solubility kinetic at 24 h,[1]; [6],196 µM
CCS(=O)(=O)c1ccccc1C(=O)N1CCN(c2nc3ccc(F)c(F)c3s2)C[C@@H]1C [Compound 36],solubility kinetic at 24 h,[1]; [7],1 µM
same,half-life,[2]; [8],> 1 h
same,half-life,[3]; read-out: m-plasma stab. t1/2,> 2 h
O=C(c1ccccc1S(=O)(=O)C1CC1)N1CCN(c2nc3ccc(F)cc3s2)CC1 [Compound 22],half-life,[2]; [8],> 1 h
same,half-life,[3]; read-out: m-plasma stab. t1/2,> 2 h
same,inhibition at 30 µM,[4],-1%
O=C(c1ccccc1S(=O)(=O)C1COC1)N1CCN(c2nc3ccc(F)cc3s2)CC1 [oxetan-3-yl],solubility kinetic at 24 h,[1]; [9],22 µM
C[C@H]1CN(c2nc3ccc(F)cc3o2)CCN1C(=O)c1ccccc1S(=O)(=O)C1CC1 [Compound 27],solubility kinetic at 24 h,[1]; [10],124 µM
same,half-life,[3]; read-out: m-plasma stab. t1/2,> 2 h
same,inhibition at 30 µM,[4],-12%
CCS(=O)(=O)c1ccccc1C(=O)N1CCN(c2nc3ccc(Cl)cc3s2)CC1 [Cl],solubility kinetic at 24 h,[1]; [6],2 µM
O=C(c1ccccc1S(=O)(=O)C1CCC1)N1CCN(c2nc3ccc(F)cc3s2)CC1 [c-butyl],solubility kinetic,[1]; [11],5 µM
CC(C)S(=O)(=O)c1ccccc1C(=O)N1CCN(c2nc3ccc(F)cc3s2)CC1 [i-Pr],solubility kinetic at 24 h,[1]; [9],< 1 µM
CCS(=O)(=O)c1ccccc1C(=O)N1CCN(c2nc3ccc(F)cc3s2)[C@H](C)C1 [Compound 24],inhibition at 30 µM,[4],1%
O=C(c1ccccc1S(=O)(=O)C1CC1)N1CCN(c2nc3ccc(F)cc3s2)CC1 [c-propyl],solubility kinetic,[1]; [11],10 µM
CCS(=O)(=O)c1ccccc1C(=O)N1CCN(c2nc3ccc(C)cc3s2)CC1 [CH3],solubility kinetic at 24 h,[1]; [6],181 µM
CCCS(=O)(=O)c1ccccc1C(=O)N1CCN(c2nc3ccc(F)c(F)c3s2)C[C@@H]1C [Compound 37],solubility kinetic at 24 h,[1]; [7],8 µM
same,half-life,[2]; [8],> 1 h
same,half-life,[3]; read-out: m-plasma stab. t1/2,> 2 h
same,inhibition at 30 µM,[4],9%
CCS(=O)(=O)c1ccccc1C(=O)N1CCN(c2nc3ccc(F)cc3s2)CC1 [Cmpd 1],half-life,[2]; [8],> 1 h
same,half-life,[3]; read-out: m-plasma stab. t1/2,> 2 h
CCS(=O)(=O)c1ccccc1C(=O)N1CCN(c2nc3ccc(F)cc3o2)C[C@@H]1C [Compound 26],solubility kinetic at 24 h,[1]; [10],6 µM
same,half-life,[2]; [8],> 1 h
same,half-life,[3]; read-out: m-plasma stab. t1/2,> 2 h
same,inhibition at 30 µM,[4],-12%
CCCS(=O)(=O)c1ccccc1C(=O)N1CCN(c2nc3ccc(F)cc3s2)CC1 [Compound 11],half-life,[2]; [8],> 1 h
same,half-life,[3]; read-out: m-plasma stab. t1/2,> 2 h
same,inhibition at 30 µM,[4],2%
O=C(c1ccccc1S(=O)(=O)C1COC1)N1CCN(c2nc3ccc(F)cc3s2)CC1 [Compound 13],half-life,[2]; [8],> 1 h
same,half-life,[3]; read-out: m-plasma stab. t1/2,> 2 h
"CCS(=O)(=O)c1ccccc1C(=O)N1CCN(c2nc3ccc(F)cc3s2)C[C@@H]1C [Compound 8, (2-ethylsulfonylphenyl)-[(2S)-4-(6-fluoro-1,3-benzothiazol-2-yl)-2-methyl-piperazin-1-yl]methanone]",Cmax,[5]; [12],1610 ng/mL
same,Tmax,[5]; [12],0.0833 h
same,half-life,[5]; [12],0.725 h
same,AUC,"[5]; 3 mg/kg, CD1 mouse, iv 3 mpk, brain, read-out: AUC",867 ng·h/mL
same,Cmax,[5]; [13],1810 ng/mL
same,Tmax,[5]; [13],0.0833 h
same,clearance,[5]; [13],31 mL/min/kg
same,half-life,[5]; [13],0.893 h
same,AUC,"[5]; 3 mg/kg, CD1 mouse, iv 3 mpk, plasma, read-out: AUC",1550 ng·h/mL
same,Vd,"[5]; 3 mg/kg, CD1 mouse, iv 3 mpk, plasma, read-out: Vss",2.4 L/kg
same,Cmax,[5]; [14],392 ng/mL
same,Tmax,[5]; [14],0.5 h
same,half-life,[5]; [14],1.22 h
same,AUC,"[5]; C57B6/J, 10 mg/kg, C57 mouse, po 10 mpk, brain, read-out: AUC",1340 ng·h/mL
same,Cmax,[5]; [15],1470 ng/mL
same,Tmax,[5]; [15],0.5 h
same,half-life,[5]; [15],1.34 h
same,AUC,"[5]; C57B6/J, 10 mg/kg, C57 mouse, po 10 mpk, plasma, read-out: AUC",5340 ng·h/mL
same,Cmax,[5]; [16],2240 ng/mL
same,Tmax,[5]; [16],0.25 h
same,half-life,[5]; [16],3.14 h
same,AUC,"[5]; C57B6/J, 30 mg/kg, C57 mouse, po 30 mpk, brain, read-out: AUC",3230 ng·h/mL
same,Cmax,[5]; [17],5170 ng/mL
same,Tmax,[5]; [17],0.25 h
same,half-life,[5]; [17],1.41 h
same,AUC,"[5]; C57B6/J, 30 mg/kg, C57 mouse, po 30 mpk, plasma, read-out: AUC",46200 ng·h/mL
same,Kp,"[5]; C57B6/J, 10 mg/kg, C57 mouse, po 10 mpk, read-out: AUCbrain/AUCplasma",0.251
same,Kp,"[5]; C57B6/J, 30 mg/kg, C57 mouse, po 30 mpk, read-out: AUCbrain/AUCplasma",0.07
same,Total AUC (AUCplasma + AUCbrain),"[5]; C57 mouse, po 10 mpk",6683
same,% distribution (AUC organ/(AUCplasma + AUCbrain)),"[5]; C57 mouse, po 10 mpk, brain",20%
same,% distribution (AUC organ/(AUCplasma + AUCbrain)),"[5]; C57 mouse, po 10 mpk, plasma",80%
same,Cl,"[5]; C57 mouse, po 10 mpk, plasma",30.429 mL/min/kg
same,Vss,"[5]; C57 mouse, po 10 mpk, plasma",3.53 L/kg
same,Total AUC,"[5]; C57 mouse, po 30 mpk",49447.7
same,% distribution,"[5]; C57 mouse, po 30 mpk, brain",7%
same,% distribution,"[5]; C57 mouse, po 30 mpk, plasma",93%
same,Cl,"[5]; C57 mouse, po 30 mpk, plasma",10.817 mL/min/kg
same,Vss,"[5]; C57 mouse, po 30 mpk, plasma",1.32 L/kg
same,Total AUC,"[5]; CD1 mouse, iv 3 mpk",2421.5
same,% distribution,"[5]; CD1 mouse, iv 3 mpk, brain",36%
same,% distribution,"[5]; CD1 mouse, iv 3 mpk, plasma",64%
same,Kp,"[5]; 3 mg/kg, CD1 mouse, iv 3 mpk, read-out: AUCbrain/AUCplasma",0.557
O=C(c1ccccc1S(=O)(=O)CCCO)N1CCN(c2nc3ccc(F)cc3s2)CC1 [CH2CH2CH2OH],solubility kinetic,[1]; [11],49 µM
CCS(=O)(=O)c1ccccc1C(=O)N1CCN(c2nc3ccc(F)cc3s2)C(C)C1 (stereo not shown) [Compound 16],inhibition at 30 µM,[4],25%
CCS(=O)(=O)c1ccccc1C(=O)N1CCN(c2nc3cccc(F)c3s2)CC1 [Compound 9],half-life,[2]; [8],0.267 h
same,half-life,[3]; read-out: m-plasma stab. t1/2,> 2 h
same,inhibition at 30 µM,[4],-3%
O=C(c1ccccc1S(=O)(=O)C1CCCC1)N1CCN(c2nc3ccc(F)cc3s2)CC1 [c-pentyl],solubility kinetic,[1]; [11],< 1 µM
CCS(=O)(=O)c1ccccc1C(=O)N1CCN(c2nc3c(F)cccc3s2)CC1 [Compound 8],half-life,[2]; [8],0.267 h
same,half-life,[3]; read-out: m-plasma stab. t1/2,> 2 h
CCS(=O)(=O)c1ccccc1C(=O)N1CCN(c2nc3ccc(OC)cc3s2)CC1 [OMe],solubility kinetic at 24 h,[1]; [6],39 µM
O=C(c1ccccc1S(=O)(=O)C1CCC1)N1CCN(c2nc3ccc(F)cc3s2)CC1 [Compound 12],half-life,[2]; [8],> 1 h
same,half-life,[3]; read-out: m-plasma stab. t1/2,> 2 h
same,inhibition at 30 µM,[4],-3%
CCCCS(=O)(=O)c1ccccc1C(=O)N1CCN(c2nc3ccc(F)cc3s2)CC1 [CH2CH2CH2CH3],solubility kinetic,[1]; [11],< 1 µM
C[C@H]1CN(c2nc3ccc(F)c(F)c3s2)CCN1C(=O)c1ccccc1S(=O)(=O)C1CC1 [Compound 38],solubility kinetic at 24 h,[1]; [7],14 µM
same,half-life,[3]; read-out: m-plasma stab. t1/2,> 2 h
CCCS(=O)(=O)c1ccccc1C(=O)N1CCN(c2nc3ccc(F)cc3s2)CC1 [CH2CH2CH3],solubility kinetic,[1]; [11],< 1 µM
CCS(=O)(=O)c1ccccc1C(=O)N1CCN(c2nc3ccc(F)cc3s2)C[C@@H]1C [Compound 8],solubility at 24 h,"[1]; phosphate-buffered saline (PBS), 25 °C, Table 5",165 µM
same,solubility at 24 h,[1]; [18],139 ± 1 µM
same,half-life,"[2]; pH 7.4, NADPH, read-out: MLM (NADPH) t1/2",> 1 h
same,half-life,"[3]; Table 5, read-out: Plasma t1/2",> 2 h
same,Kp,"[5]; C57B6/J, mouse, 3 mg/kg, mice, oral administration, read-out: brain-to-plasma ratio",0.25
same,Tmax,"[5]; C57B6/J, mouse, plasma, oral 3 mg/kg, mice",0.5 h
same,AUC,"[5]; C57B6/J, mouse, plasma, oral 3 mg/kg, mice, read-out: AUCplasma",988 ng·h/mL
same,Cmax,"[5]; C57B6/J, mouse, oral 3 mg/kg, mice, plasma",613 ng/mL
"CCCS(=O)(=O)c1ccccc1C(=O)N1CCN(c2nc3ccc(F)cc3s2)C[C@@H]1C [Compound 41, [(2S)-4-(6-fluoro-1,3-benzothiazol-2-yl)-2-methyl-piperazin-1-yl]-(2-propylsulfonylphenyl)methanone]",solubility at 24 h,[1]; [18],76 ± 1 µM
CCCS(=O)(=O)c1ccccc1C(=O)N1CCN(c2nc3ccc(F)cc3o2)C[C@@H]1C [Compound 28],solubility kinetic at 24 h,[1]; [10],45 µM
same,half-life,[3]; read-out: m-plasma stab. t1/2,> 2 h
same,inhibition at 30 µM,[4],-11%
"C[C@H]1CN(c2nc3ccc(F)cc3s2)CCN1C(=O)c1ccccc1S(=O)(=O)C1CC1 [Compound 42, (2-cyclopropylsulfonylphenyl)-[(2S)-4-(6-fluoro-1,3-benzothiazol-2-yl)-2-methyl-piperazin-1-yl]methanone]",solubility at 24 h,[1]; [18],115 ± 7 µM
